Results taken from patent US20030195191A1, “N-sulfonyl hydroxamic acid derivatives as inhibitors of cd23” (priority 2000, published 2003).

Molecular target: T1, human recombinant collagenase (Homo sapiens, UniProt P03956)
T1 construct: made in house; host or cells: E. coli
T1 sequence (P03956 100-469): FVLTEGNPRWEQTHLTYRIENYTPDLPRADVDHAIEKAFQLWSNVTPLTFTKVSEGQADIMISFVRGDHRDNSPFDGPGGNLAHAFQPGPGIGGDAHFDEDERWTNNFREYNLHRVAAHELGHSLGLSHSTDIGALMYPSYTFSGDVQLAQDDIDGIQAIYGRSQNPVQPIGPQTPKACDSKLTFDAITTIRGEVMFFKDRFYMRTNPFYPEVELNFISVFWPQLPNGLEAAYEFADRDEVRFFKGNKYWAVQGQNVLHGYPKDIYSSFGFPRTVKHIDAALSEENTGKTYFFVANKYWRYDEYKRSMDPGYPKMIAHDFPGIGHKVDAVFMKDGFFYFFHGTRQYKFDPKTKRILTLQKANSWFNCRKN
Assay: Collagenase inhibition assay
Type: biochemical
Details: 37° C., 18 h, acetylated 3H type 1 bovine collagen
Procedure: Procedure 2: The Ability of Test Compounds to Inhibit Collagenase was Investigated Using the Following Procedure.
Collagenase Inhibition Assay:
The potency of compounds to act as inhibitors of collagenase was determined by the method of Cawston and Barrett (Anal. Biochem. 99, 340-345, 1979), hereby incorporated by reference, whereby a 1 mM solution of the inhibitor being tested or dilutions thereof, was incubated at 37° C. for 18 h with collagen and human recombinant collagenase, from synovial fibroblasts cloned, expressed and purified from E. Coli, (buffered with 150 mM Tris, pH 7.6, containing 15 mM calcium chloride, 0.05% Brij 35, 200 mM sodium chloride and 0.02% sodium azide). The collagen was acetylated ^3H type 1 bovine collagen prepared by the method of Cawston and Murphy (methods in Enzymology 80, 711,1981) The samples were centrifuged to sediment undigested collagen and an aliquot of the radioactive supernatant removed for assay on a scintillation counter as a measure of hydrolysis. The collagenase activity in the presence of 1 mM inhibitor, or dilution thereof, was compared to activity in a control devoid of inhibitor and the results reported as that concentration effecting 50% of the collagenase (IC50).

Q: How did the IC50 turn out when O=C(NO)[C@H]1CCCCN1S(=O)(=O)Cc1ccc2ccccc2c1 [Example 2, (R)-1-(Naphthalen-2-ylmethanesulfonyl)piperidine-2-carboxylic Acid N-hydroxyamide] was run?
A: The IC50 was greater than 10 µM.
